The target in this experiment is T1, KCNT1 (KNa1.1, Slack) (Homo sapiens, UniProt Q5JUK3).
T1 construct: expressed in transfected cells; host or cells: HEK-TREX (tetracycline-inducible HEK cell line)
T1 sequence (Q5JUK3 1-1230): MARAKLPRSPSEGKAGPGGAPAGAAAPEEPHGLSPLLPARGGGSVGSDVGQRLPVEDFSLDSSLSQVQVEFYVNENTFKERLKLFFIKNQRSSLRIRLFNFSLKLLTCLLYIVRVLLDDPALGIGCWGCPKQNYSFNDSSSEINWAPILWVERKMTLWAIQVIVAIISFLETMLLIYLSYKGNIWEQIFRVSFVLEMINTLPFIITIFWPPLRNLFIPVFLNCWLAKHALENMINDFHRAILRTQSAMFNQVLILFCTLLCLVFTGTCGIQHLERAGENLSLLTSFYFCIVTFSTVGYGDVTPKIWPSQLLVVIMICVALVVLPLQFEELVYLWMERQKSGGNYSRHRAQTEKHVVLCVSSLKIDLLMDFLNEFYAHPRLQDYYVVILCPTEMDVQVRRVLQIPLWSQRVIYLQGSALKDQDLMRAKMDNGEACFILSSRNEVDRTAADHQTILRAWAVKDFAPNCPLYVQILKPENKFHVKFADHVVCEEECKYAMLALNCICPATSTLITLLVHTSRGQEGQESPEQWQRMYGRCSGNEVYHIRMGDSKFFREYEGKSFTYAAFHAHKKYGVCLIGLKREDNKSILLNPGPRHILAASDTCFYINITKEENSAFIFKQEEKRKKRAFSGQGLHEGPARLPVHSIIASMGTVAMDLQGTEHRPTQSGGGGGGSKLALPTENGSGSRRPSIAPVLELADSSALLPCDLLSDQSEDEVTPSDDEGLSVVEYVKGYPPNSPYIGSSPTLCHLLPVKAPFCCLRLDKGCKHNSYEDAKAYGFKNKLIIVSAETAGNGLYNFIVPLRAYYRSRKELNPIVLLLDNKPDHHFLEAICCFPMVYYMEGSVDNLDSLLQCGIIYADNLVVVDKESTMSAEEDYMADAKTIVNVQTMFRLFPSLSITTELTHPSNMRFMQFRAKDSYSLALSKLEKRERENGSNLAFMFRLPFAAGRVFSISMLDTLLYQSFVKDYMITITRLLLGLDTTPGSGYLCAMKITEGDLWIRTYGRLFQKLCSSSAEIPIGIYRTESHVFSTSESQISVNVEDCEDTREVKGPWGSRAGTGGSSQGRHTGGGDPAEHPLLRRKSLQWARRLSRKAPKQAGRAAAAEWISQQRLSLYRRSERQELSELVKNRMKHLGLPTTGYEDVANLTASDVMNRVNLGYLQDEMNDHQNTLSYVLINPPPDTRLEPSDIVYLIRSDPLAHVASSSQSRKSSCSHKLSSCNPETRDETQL
Briefly: KCNT1 patch clamp assay (SyncroPatch 384PE automated patch clamp). As to conditions: tetracycline inducible HEK-TREX cell line; perforated patch; step from −80 mV to 0 mV; room temperature; read-out: KCNT1-WT IC50. Type of experiment: cell-based. The essentials:
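Tetracycline-inducible HEK-TREX cells; perforated-patch (10 μM escin) population recordings at room temperature, holding −80 mV with 100 ms step to 0 mV.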
Background: The patch-clamp technique gives a direct electrical read-out from membranes.

Structures are written as SMILES. Where only a bound is given, the exact number is not on record here.

A word on the IC50: it is the concentration at which inhibition is half-maximal. As to `C[C@H](NC(=O)c1cc(C(F)(F)F)nn1CCN(C)C)c1nc(-c2ccnc(C(F)(F)F)c2)no1` [Compound 243, (S)-1-(2-(dimethylamino)ethyl)-3-(trifluoromethyl)-N-(1-(3-(2-(trifluoromethyl)pyridin-4-yl)-1,2,4-oxadiazol-5-yl)ethyl)-1H-pyrazole-5-carboxamide], the IC50 is no more than 1000 nM.

`Cc1nn(C)c(C(=O)N[C@@H](C)c2nc(-c3ccnc(C(F)(F)F)c3)no2)c1C` [Compound 244]: the IC50 lay within 1000 to 20000 nM.

For `CCOCc1cc(-c2noc([C@H](C)NC(=O)c3cc(C(F)(F)F)nn3C)n2)ccn1` [Compound 245, (S)—N-(1-(3-(2-(ethoxymethyl)pyridin-4-yl)-1,2,4-oxadiazol-5-yl)ethyl)-1-methyl-3-(trifluoromethyl)-1H-pyrazole-5-carboxamide], the IC50 was in the range of 1000 to 20000 nM.

Turning to `C[C@H](NC(=O)c1cc(C(F)(F)F)nn1Cc1ccncc1)c1nc(-c2ccnc(C(F)(F)F)c2)no1` [Compound 246, (S)-1-(pyridin-4-ylmethyl)-3-(trifluoromethyl)-N-(1-(3-(2-(trifluoromethyl)pyridin-4-yl)-1,2,4-oxadiazol-5-yl)ethyl)-1H-pyrazole-5-carboxamide], the IC50 is no more than 1000 nM.

On to `CC[C@H](NC(=O)OC(C)(C)C)c1nc(-c2ccnc(C3CC3)c2)no1` [Compound 247, tert-butyl (S)-(1-(3-(2-cyclopropylpyridin-4-yl)-1,2,4-oxadiazol-5-yl)propyl)carbamate], for which the IC50 was no more than 1000 nM.

For the molecule `CC[C@H](NC(=O)c1cc(C(F)(F)F)nn1C)c1nc(-c2ccnc(C3CC3)c2)no1` [Compound 248, (S)—N-(1-(3-(2-cyclopropylpyridin-4-yl)-1,2,4-oxadiazol-5-yl)propyl)-1-methyl-3-(trifluoromethyl)-1H-pyrazole-5-carboxamide], the IC50 is no more than 1000 nM.

As to `C[C@H](NC(=O)c1cc(C(F)(F)F)nn1CC(=O)N1CCCC1)c1nc(-c2ccnc(C(F)(F)F)c2)no1` [Compound 249, (S)-1-(2-oxo-2-(pyrrolidin-1-yl)ethyl)-3-(trifluoromethyl)-N-(1-(3-(2-(trifluoromethyl)pyridin-4-yl)-1,2,4-oxadiazol-5-yl)ethyl)-1H-pyrazole-5-carboxamide], the IC50 was no more than 1000 nM.

Regarding `C[C@H](NC(=O)c1cc(C(F)(F)F)nn1CC(=O)N(C)C)c1nc(-c2ccnc(C(F)(F)F)c2)no1` [Compound 251, (S)-1-(2-(dimethylamino)-2-oxoethyl)-3-(trifluoromethyl)-N-(1-(3-(2-(trifluoromethyl)pyridin-4-yl)-1,2,4-oxadiazol-5-yl)ethyl)-1H-pyrazole-5-carboxamide], the half-maximal inhibitory concentration (IC50) was 1000 to 20000 nM.

As for `Cc1cc(C(=O)N[C@@H](C)c2nc(-c3ccnc(C(F)(F)F)c3)no2)n(C)n1` [Compound 252], the IC50 fell in the range of 1000 to 20000 nM.

For `C[C@H](NC(=O)c1cc(C(F)(F)F)nn1Cc1cccnc1)c1nc(-c2ccnc(C(F)(F)F)c2)no1` [Compound 253, (S)-1-(pyridin-3-ylmethyl)-3-(trifluoromethyl)-N-(1-(3-(2-(trifluoromethyl)pyridin-4-yl)-1,2,4-oxadiazol-5-yl)ethyl)-1H-pyrazole-5-carboxamide], the half-inhibitory concentration (IC50) was no more than 1000 nM.

In the case of `C[C@H](NC(=O)c1cc(C(F)(F)F)nn1C)c1nc(-c2ccnc(COC3CC3)c2)no1` [Compound 254, (S)—N-(1-(3-(2-(cyclopropoxymethyl)pyridin-4-yl)-1,2,4-oxadiazol-5-yl)ethyl)-1-methyl-3-(trifluoromethyl)-1H-pyrazole-5-carboxamide], the IC50 lay within 1000 to 20000 nM.

For the molecule `C[C@H](NC(=O)c1cc(C(F)(F)F)nn1CCN1CCCC1)c1nc(-c2ccnc(C(F)(F)F)c2)no1` [Compound 257, (S)-1-(2-(pyrrolidin-1-yl)ethyl)-3-(trifluoromethyl)-N-(1-(3-(2-(trifluoromethyl)pyridin-4-yl)-1,2,4-oxadiazol-5-yl)ethyl)-1H-pyrazole-5-carboxamide], the half-maximal inhibitory concentration (IC50) is no more than 1000 nM.

As to `C[C@H](NC(=O)c1cc(C(F)(F)F)nn1C)c1nc(-c2ccnc(CO)c2)no1` [Compound 258, N-[(1S)-1-[3-[2-(hydroxymethyl)-4-pyridyl]-1,2,4-oxadiazol-5-yl]ethyl]-2-methyl-5-(trifluoromethyl)pyrazole-3-carboxamide], the 50% inhibitory concentration (IC50) lay within 1000 to 20000 nM.

On to `CC(C)OCc1cc(-c2noc([C@H](C)NC(=O)c3cc(C(F)(F)F)nn3C)n2)ccn1` [Compound 259, N-[(1S)-1-[3-[2-(isopropoxymethyl)-4-pyridyl]-1,2,4-oxadiazol-5-yl]ethyl]-2-methyl-5-(trifluoromethyl)pyrazole-3-carboxamide], for which the IC50 fell in the range of 1000 to 20000 nM.

On to `C[C@H](NC(=O)c1cc(C(F)(F)F)nn1C)c1nc(-c2ccnc(CN(C)C)c2)no1` [Compound 260, (S)—N-(1-(3-(2-((dimethylamino)methyl)pyridin-4-yl)-1,2,4-oxadiazol-5-yl)ethyl)-1-methyl-3-(trifluoromethyl)-1H-pyrazole-5-carboxamide], for which the IC50 was no less than 20000 nM.

Take `C[C@H](NC(=O)c1cc(C(F)(F)F)nn1C)c1nc(-c2ccnc(CN3CCCC3)c2)no1` [Compound 261, (S)-1-methyl-N-(1-(3-(2-(pyrrolidin-1-ylmethyl)pyridin-4-yl)-1,2,4-oxadiazol-5-yl)ethyl)-3-(trifluoromethyl)-1H-pyrazole-5-carboxamide]: the IC50 was no less than 20000 nM.

Regarding `COC1(c2cc(-c3noc([C@H](C)NC(=O)OC(C)(C)C)n3)ccn2)CC1` [Compound 262, tert-butyl (S)-(1-(3-(2-(1-methoxycyclopropyl)pyridin-4-yl)-1,2,4-oxadiazol-5-yl)ethyl)carbamate], the half-inhibitory concentration (IC50) is 1000 to 20000 nM.

For the molecule `COC1(c2cc(-c3noc([C@H](C)NC(=O)c4cc(C(F)(F)F)nn4C)n3)ccn2)CC1` [Compound 263, (S)—N-(1-(3-(2-(1-methoxycyclopropyl)pyridin-4-yl)-1,2,4-oxadiazol-5-yl)ethyl)-1-methyl-3-(trifluoromethyl)-1H-pyrazole-5-carboxamide], the concentration for half-maximal inhibition (IC50) is 1000 to 20000 nM.

`C[C@H](NC(=O)c1cc(C(F)(F)F)nn1C)c1nc(-c2ccnc(CS(C)(=O)=O)c2)no1` [Compound 264, 2-methyl-N-[(1S)-1-[3-[2-(methylsulfonylmethyl)-4-pyridyl]-1,2,4-oxadiazol-5-yl]ethyl]-5-(trifluoromethyl)pyrazole-3-carboxamide]: the IC50 is no less than 20000 nM.

For the molecule `CC[C@@H](NC(=O)c1cc(C(F)(F)F)nn1C)c1nc(-c2ccnc(C3CC3)c2)no1` [Compound 266, N-[(1R)-1-[3-(2-cyclopropyl-4-pyridyl)-1,2,4-oxadiazol-5-yl]propyl]-2-methyl-5-(trifluoromethyl)pyrazole-3-carboxamide], the IC50 was no more than 1000 nM.

For `C[C@H](NC(=O)c1cc(C(F)(F)F)nn1C)c1nc(-c2ccnc(C#N)c2)no1` [Compound 267, (S)—N-(1-(3-(2-cyanopyridin-4-yl)-1,2,4-oxadiazol-5-yl)ethyl)-1-methyl-3-(trifluoromethyl)-1H-pyrazole-5-carboxamide], the IC50 lay within 1000 to 20000 nM.

Turning to `CCc1cc(-c2noc([C@H](C)NC(=O)c3cc(C(F)(F)F)nn3C)n2)ccn1` [Compound 268, (S)—N-(1-(3-(2-ethylpyridin-4-yl)-1,2,4-oxadiazol-5-yl)ethyl)-1-methyl-3-(trifluoromethyl)-1H-pyrazole-5-carboxamide], the half-inhibitory concentration (IC50) is no more than 1000 nM.

On to `CC(C)c1cc(-c2noc([C@H](C)NC(=O)c3cc(C(F)(F)F)nn3C)n2)ccn1` [Compound 269, (S)—N-(1-(3-(2-isopropylpyridin-4-yl)-1,2,4-oxadiazol-5-yl)ethyl)-1-methyl-3-(trifluoromethyl)-1H-pyrazole-5-carboxamide], for which the IC50 is no more than 1000 nM.

As to `C[C@H](NC(=O)c1ccnn1C1CCCC1)c1nc(-c2ccnc(C3CC3)c2)no1` [Compound 270], the IC50 was no more than 1000 nM.

For the molecule `C[C@H](NC(=O)OC(C)(C)C)c1nc(-c2ccnc(C3(C)CC3)c2)no1` [Compound 272, tert-butyl (S)-(1-(3-(2-(1-methylcyclopropyl)pyridin-4-yl)-1,2,4-oxadiazol-5-yl)ethyl)carbamate], the 50% inhibitory concentration (IC50) lay in the range of 1000 to 20000 nM.

For the molecule `C[C@H](NC(=O)OCc1ccccc1)c1nc(-c2ccnc(C3CC3)c2)no1` [Compound 273], the IC50 was no more than 1000 nM.

The values are drawn from US20220259193A1, “KCNT1 INHIBITORS AND METHODS OF USE” (Praxis Precision Medicines, Inc., priority 2019, published 2022).
